Source: US20260078119A1, “DEGRADER COMPOUNDS AND USES THEREOF” (Bristol-Myers Squibb Company, priority 2024, published 2026)

Columns and labels:
CAL-51 cells = test: CAL-51 Cell Proliferation Assay; assay type: cell-based; conditions: for EC50: Homo sapiens, 120 hours incubation, 10-point dose response, 4-fold dilutions starting at 10 μM, Cell-Titer-Glo, read-out: CAL-51 Prolif EC50; for CAL-51 Prolif Ymin: minimal percent of DMSO control observed in the concentrations tested (Ymin-obs), 120 hours
In short: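 EC50 comes from a four-parameter logistic fit of blank-corrected, DMSO-normalised CellTiter-Glo signal after 120 h growth (37 °C, 350 cells/well, RPMI complete medium). Compounds ran as 10-point 4-fold series starting at 10 μM, duplicate, 0.1% DMSO. Ymin-obs records the minimal percent of DMSO control observed.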

FAK = target: T1, FAK (Homo sapiens, UniProt Q05397); test: FAK-HiBiT Degradation Assay; assay type: cell-based; conditions: for DC50: JHH-4-FAK-HiBiT clone d01 cells, two hours incubation, 10-point dose response, 3-fold dilution starting at 1 μM, Nano-Glo HiBiT luminescence, read-out: FAK HiBiT EC50; for FAK HiBiT Ymin: lower limit of the four parameter fit (value A), Ymax derived using DMSO control, JHH-4-FAK-HiBiT cells, two hours
T1 construct: homozygous knock-in of a HiBiT tag (Promega Corporation, Madison, WI) to the C-terminus of the FAK gene in its natural genomic locus; endogenous in cells; host or cells: JHH-4-FAK-HiBiT clone d01 (CRISPR-Cas9 knock-in at the endogenous locus)
In short: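 Degradation read out by HiBiT lytic luminescence after 2 h compound exposure (top concentration 1 μM, 3-fold, 10 points) in JHH-4 clone d01 bearing endogenous FAK-HiBiT knock-in. Four-parameter logistic fit gave EC50 and Ymin; DMSO wells defined Ymax.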

T1 sequence (Q05397 whole entry): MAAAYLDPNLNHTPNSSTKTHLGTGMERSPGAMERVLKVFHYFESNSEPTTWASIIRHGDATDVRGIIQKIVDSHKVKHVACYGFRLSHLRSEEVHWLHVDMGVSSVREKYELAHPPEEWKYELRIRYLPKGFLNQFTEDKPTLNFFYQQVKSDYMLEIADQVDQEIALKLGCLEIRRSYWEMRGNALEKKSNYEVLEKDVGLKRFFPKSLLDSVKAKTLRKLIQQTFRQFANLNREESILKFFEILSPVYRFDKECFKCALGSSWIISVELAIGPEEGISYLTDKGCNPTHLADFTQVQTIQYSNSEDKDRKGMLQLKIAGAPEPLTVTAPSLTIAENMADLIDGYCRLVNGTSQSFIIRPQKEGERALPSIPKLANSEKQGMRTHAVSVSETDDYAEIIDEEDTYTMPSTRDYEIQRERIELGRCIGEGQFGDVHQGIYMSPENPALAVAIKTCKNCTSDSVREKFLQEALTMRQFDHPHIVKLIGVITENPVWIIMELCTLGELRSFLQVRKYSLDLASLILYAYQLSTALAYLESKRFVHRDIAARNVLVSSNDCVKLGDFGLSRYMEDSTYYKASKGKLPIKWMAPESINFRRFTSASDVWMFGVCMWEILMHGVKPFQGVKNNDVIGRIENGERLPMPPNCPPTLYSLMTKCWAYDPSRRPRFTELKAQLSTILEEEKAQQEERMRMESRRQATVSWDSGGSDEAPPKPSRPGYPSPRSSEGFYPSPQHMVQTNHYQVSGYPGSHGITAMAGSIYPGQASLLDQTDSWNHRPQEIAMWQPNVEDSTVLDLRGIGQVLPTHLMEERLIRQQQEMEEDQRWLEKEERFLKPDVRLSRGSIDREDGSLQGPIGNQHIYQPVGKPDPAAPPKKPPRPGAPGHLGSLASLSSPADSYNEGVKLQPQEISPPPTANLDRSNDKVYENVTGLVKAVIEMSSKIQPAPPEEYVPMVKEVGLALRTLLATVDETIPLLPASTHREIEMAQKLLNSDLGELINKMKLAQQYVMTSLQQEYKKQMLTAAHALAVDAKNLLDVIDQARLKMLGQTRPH

SMILES	EC50 (CAL-51 cells) [nM]	CAL-51 Prolif Ymin (CAL-51 cells)	DC50 (FAK) [nM]	FAK HiBiT Ymin (FAK)
Cc1cc(F)cnc1-c1cc(N2CC[C@H](O)C2)nc2c1cnn2Cc1ccc2c(c1)CN([C@H]1CCC(=O)NC1=O)C2=O [Example 125, (3S)-3-(5-{[4-(5-fluoro-3-methylpyridin-2-yl)-6-[(3S)-3-hydroxypyrrolidin-1-yl]-1H-pyrazolo[3,4-b]pyridin-1-yl]methyl}-1-oxo-2,3-dihydro-1H-isoindol-2-yl)piperidine-2,6-dione]	262	34.48	149	29.00
O=C1CCC(N2Cc3cc(Cn4ncc5c(-c6ncc(C(F)(F)F)cc6Cl)cc(NC6COC6)nc54)ccc3C2=O)C(=O)N1 (stereo not shown) [Example 126, 3-[5-({4-[3-chloro-5-(trifluoromethyl)pyridin-2-yl]-6-[(oxetan-3-yl)amino]-1H-pyrazolo[3,4-b]pyridin-1-yl}methyl)-1-oxo-2,3-dihydro-1H-isoindol-2-yl]piperidine-2,6-dione]	0.47	91.32	169	89.33
CN1CCC(Nc2cc(-c3ncc(C(F)(F)F)cc3Cl)c3cnn(Cc4ccc5c(c4)CN(C4CCC(=O)NC4=O)C5=O)c3n2)C1 (stereo not shown) [Example 128, 3-[5-({4-[3-chloro-5-(trifluoromethyl)pyridin-2-yl]-6-[(1-methylpyrrolidin-3-yl)amino]-1H-pyrazolo[3,4-b]pyridin-1-yl}methyl)-1-oxo-2,3-dihydro-1H-isoindol-2-yl]piperidine-2,6-dione]	191	83.49	292	58.00
O=C1CCC(N2Cc3cc(Cn4ncc5c(-c6nnccc6C(F)(F)F)cc(N6CC(F)C6)nc54)ccc3C2=O)C(=O)N1 (stereo not shown) [Example 129, 3-(5-{[6-(3-fluoroazetidin-1-yl)-4-[4-(trifluoromethyl)pyridazin-3-yl]-1H-pyrazolo[3,4-b]pyridin-1-yl]methyl}-1-oxo-2,3-dihydro-1H-isoindol-2-yl)piperidine-2,6-dione]	499	92.49	≥ 1000	95.34
COc1cc(F)cnc1-c1cc(N2CC(F)C2)nc2c1cnn2Cc1ccc2c(c1)CN(C1CCC(=O)NC1=O)C2=O (stereo not shown) [Example 130, 3-(5-{[4-(5-fluoro-3-methoxypyridin-2-yl)-6-(3-fluoroazetidin-1-yl)-1H-pyrazolo[3,4-b]pyridin-1-yl]methyl}-1-oxo-2,3-dihydro-1H-isoindol-2-yl)piperidine-2,6-dione]	3900	76.29	≥ 1000	84.84
O=C1CC[C@H](N2Cc3cc(Cn4ncc5c(-c6ncc(C(F)(F)F)cc6Cl)cc(N6CCOCC6)nc54)ccc3C2=O)C(=O)N1 [Example 131, (3S)-3-[5-({4-[3-chloro-5-(trifluoromethyl)pyridin-2-yl]-6-(morpholin-4-yl)-1H-pyrazolo[3,4-b]pyridin-1-yl}methyl)-1-oxo-2,3-dihydro-1H-isoindol-2-yl]piperidine-2,6-dione]	3.1	59.06	≥ 1000	92.07
O=C1CCC(N2Cc3cc(Cn4ncc5c(-c6ncc(C(F)(F)F)cc6Cl)cc(N[C@H]6CCOC6)nc54)ccc3C2=O)C(=O)N1 (stereo partly drawn) [Example 132, 3-[5-({4-[3-chloro-5-(trifluoromethyl)pyridin-2-yl]-6-{[(3S)-oxolan-3-yl]amino}-1H-pyrazolo[3,4-b]pyridin-1-yl}methyl)-1-oxo-2,3-dihydro-1H-isoindol-2-yl]piperidine-2,6-dione]	0.1	89.52	≥ 1000	89.82
O=C1CCC(N2Cc3cc(Cn4ncc5c(-c6ncc(C(F)(F)F)cc6Cl)cc(N[C@@H]6CCOC6)nc54)ccc3C2=O)C(=O)N1 (stereo partly drawn) [Example 133, 3-[5-({4-[3-chloro-5-(trifluoromethyl)pyridin-2-yl]-6-{[(3R)-oxolan-3-yl]amino}-1H-pyrazolo[3,4-b]pyridin-1-yl}methyl)-1-oxo-2,3-dihydro-1H-isoindol-2-yl]piperidine-2,6-dione]	23.3	84.63	≥ 1000	82.45
O=C1CC[C@H](N2Cc3cc(Cn4ncc5c(-c6ncc(C(F)(F)F)cc6Cl)cc(NC6CCOCC6)nc54)ccc3C2=O)C(=O)N1 [Example 134, (3S)-3-[5-({4-[3-chloro-5-(trifluoromethyl)pyridin-2-yl]-6-[(oxan-4-yl)amino]-1H-pyrazolo[3,4-b]pyridin-1-yl}methyl)-1-oxo-2,3-dihydro-1H-isoindol-2-yl]piperidine-2,6-dione]	8.5	65.79	≥ 1000	91.34
COc1cc(C2CC2)cnc1-c1cc(N2CC(F)C2)nc2c1cnn2Cc1ccc2c(c1)CN(C1CCC(=O)NC1=O)C2=O (stereo not shown) [Example 135, 3-(5-{[4-(5-cyclopropyl-3-methoxypyridin-2-yl)-6-(3-fluoroazetidin-1-yl)-1H-pyrazolo[3,4-b]pyridin-1-yl]methyl}-1-oxo-2,3-dihydro-1H-isoindol-2-yl)piperidine-2,6-dione]	≥ 10000	84.14	≥ 1000	87.67
CN1CCN(c2cc(-c3ncc(C(F)(F)F)cc3Cl)c3cnn(Cc4ccc5c(c4)CN([C@H]4CCC(=O)NC4=O)C5=O)c3n2)CC1 [Example 136, (3S)-3-[5-({4-[3-chloro-5-(trifluoromethyl)pyridin-2-yl]-6-(4-methylpiperazin-1-yl)-1H-pyrazolo[3,4-b]pyridin-1-yl}methyl)-1-oxo-2,3-dihydro-1H-isoindol-2-yl]piperidine-2,6-dione]	≥ 10000	95.61	≥ 1000	96.76
Cc1cnc(-c2cc(N3CC(F)C3)nc3c2cnn3Cc2ccc3c(c2)CN(C2CCC(=O)NC2=O)C3=O)nc1 (stereo not shown) [Example 138, 3-(5-{[6-(3-fluoroazetidin-1-yl)-4-(5-methylpyrimidin-2-yl)-1H-pyrazolo[3,4-b]pyridin-1-yl]methyl}-1-oxo-2,3-dihydro-1H-isoindol-2-yl)piperidine-2,6-dione]	160	89.63	≥ 1000	87.20
C[C@]1(O)CCN(c2nc3c(cnn3Cc3ccc4c(c3)CN([C@H]3CCC(=O)NC3=O)C4=O)c(-c3ncc(C(F)(F)F)cc3Cl)c2F)C1 [Example 140, (3S)-3-[5-({4-[3-chloro-5-(trifluoromethyl)pyridin-2-yl]-5-fluoro-6-[(3S)-3-hydroxy-3-methylpyrrolidin-1-yl]-1H-pyrazolo[3,4-b]pyridin-1-yl}methyl)-1-oxo-2,3-dihydro-1H-isoindol-2-yl]piperidine-2,6-dione]	2.2	29.76	3.11	9.35
Cc1cc(F)cnc1-c1cc(N2CC(F)C2)nc2c1cnn2Cc1ccc2c(c1)CN([C@H]1CCC(=O)NC1=O)C2=O [Example 144, (S)-3-(5-((4-(5-fluoro-3-methylpyridin-2-yl)-6-(3-fluoroazetidin-1-yl)-1H-pyrazolo[3,4-b]pyridin-1-yl)methyl)-1-oxoisoindolin-2-yl)piperidine-2,6-dione]	7.14	35.43	10.1	11.17
O=C1CC[C@H](N2Cc3cc(Cn4ncc5c(-c6ncc(C(F)(F)F)cc6Cl)cc(N6CC[C@H](CCO)C6)nc54)ccc3C2=O)C(=O)N1 [Example 145, (S)-3-(5-((4-(3-chloro-5-(trifluoromethyl)pyridin-2-yl)-6-((R)-3-(2-hydroxyethyl)pyrrolidin-1-yl)-1H-pyrazolo[3,4-b]pyridin-1-yl)methyl)-1-oxoisoindolin-2-yl)piperidine-2,6-dione]	74.8	66.44	51.9	47.34
O=C1CC[C@H](N2Cc3cc(Cn4ncc5c(-c6ncc(C(F)(F)F)cc6Cl)cc(NCCF)nc54)ccc3C2=O)C(=O)N1 [Example 146, (S)-3-(5-((4-(3-chloro-5-(trifluoromethyl)pyridin-2-yl)-6-((2-fluoroethyl)amino)-1H-pyrazolo[3,4-b]pyridin-1-yl)methyl)-1-oxoisoindolin-2-yl)piperidine-2,6-dione]	9.4	57.23	13.1	22.43
